In general, HC50 refers to the concentration giving 50% haemolysis. As usually defined, the MIC is the smallest concentration in the dilution series that meets the test's criterion for growth inhibition.

This is an account of results in ChEMBL document CHEMBL5126613, “Novel CA(1-7)M(2-9) Analogs: Synthesis, Characterization, and Antibacterial Evaluation” (ACS Med Chem Lett, 2022).

Series [1] can be described thus: Selectivity index, ratio of HC50 for hemolytic activity in sheep RBC assessed as 50% hemolysis incubated for 30 mins by microplate reader method to MIC for antibacterial activity against Bacillus subtilis ATCC 6051 assessed as reduction in bacterial growth measured for 18 to 20 hrs by microbroth dilution method. The following applies: sheep red blood cells (erythrocytes), read-out: Selectivity Index. It is filed as toxicity. A general note: In broth dilution the organism is exposed to a series of concentrations in liquid medium.

Series [2] can be described thus: Hemolytic activity in sheep RBC assessed as hemolysis incubated for 30 mins by microplate reader method. It is filed as toxicity, cell-based, Ovis aries, Erythrocyte. The conditions noted are these: sheep red blood cells (erythrocytes), read-out: Activity.
A short description of series [3]: Selectivity index, ratio of HC50 for hemolytic activity in sheep RBC assessed as 50% hemolysis incubated for 30 mins by microplate reader method to MIC for antibacterial activity against Escherichia coli ATCC 25922 assessed as reduction in bacterial growth measured for 18 to 20 hrs by microbroth dilution method. It counts as toxicity. The following applies: sheep red blood cells (erythrocytes), read-out: Selectivity Index.

Series [4] concerns the target T1, Trypsin (Homo sapiens, UniProt P07477+P07478+P35030). In words: Stability of compound assessed as trypsin (unknown origin) mediated compound degradation measured at 4.5 hrs by LCMS analysis. The conditions noted are these: read-out: Drug degradation. It counts as ADME, protein assay.
Series [5] can be described thus: Selectivity index, ratio of HC50 for hemolytic activity in sheep RBC assessed as 50% hemolysis incubated for 30 mins by microplate reader method to MIC for antibacterial activity against Pseudomonas aeruginosa ATCC 27853 assessed as reduction in bacterial growth measured for 18 to 20 hrs by microbroth dilution method. It counts as toxicity. The conditions noted are these: sheep red blood cells (erythrocytes), read-out: Selectivity Index.

A short description of series [6]: Selectivity index, ratio of HC50 for hemolytic activity in sheep RBC assessed as 50% hemolysis incubated for 30 mins by microplate reader method to MIC for antibacterial activity against Staphylococcus aureus ATCC 29213 assessed as reduction in bacterial growth measured for 18 to 20 hrs by microbroth dilution method. It counts as toxicity. The conditions noted are these: sheep red blood cells (erythrocytes), read-out: Selectivity Index.

Series [7] in a line: Hemolytic activity in sheep RBC assessed as 50% hemolysis incubated for 30 mins by microplate reader method. It is filed as toxicity, cell-based, Ovis aries, Erythrocyte. The conditions noted are these: sheep red blood cells (erythrocytes).
The test system of another series is Bacillus subtilis. In words: Antibacterial activity against Bacillus subtilis ATCC 6051 assessed as reduction in bacterial growth measured for 18 to 20 hrs by microbroth dilution method. It counts as functional. The conditions noted are these: time 18-20 hrs.
For series [8], the target named is T1, Trypsin. In words: Stability of compound assessed as trypsin (unknown origin)-mediated compound degradation measured at 3 mins by LCMS analysis. It is filed as ADME, protein assay. The following applies: 0.05 h.
A further series concerns Pseudomonas aeruginosa. In words: Antibacterial activity against Pseudomonas aeruginosa ATCC 27853 assessed as reduction in bacterial growth measured for 18 to 20 hrs by microbroth dilution method. It is filed as functional. The conditions noted are these: time 18-20 hrs.
Another series deals with Staphylococcus aureus. Briefly: Antibacterial activity against Staphylococcus aureus ATCC 29213 assessed as reduction in bacterial growth measured for 18 to 20 hrs by microbroth dilution method. It counts as functional. The following applies: time 18-20 hrs.
Another series relates to Escherichia coli. Briefly: Antibacterial activity against Escherichia coli ATCC 25922 assessed as reduction in bacterial growth measured for 18 to 20 hrs by microbroth dilution method. It counts as functional. The following applies: time 18-20 hrs.

Consider `CC[C@H](C)[C@H](NC(=O)[C@H](CCCN)NC(=O)[C@H](CCCN)NC(=O)[C@H](Cc1ccccc1)NC(=O)[C@H](CC(C)C)NC(=O)[C@H](CCCN)NC(=O)[C@H](Cc1c[nH]c2ccccc12)NC(=O)[C@@H](N)CCCN)C(=O)NCC(=O)N[C@@H](C)C(=O)N[C@H](C(=O)N[C@@H](CC(C)C)C(=O)N[C@@H](CCCN)C(=O)N[C@H](C(=O)N[C@@H](CC(C)C)C(N)=O)C(C)C)C(C)C`, for which the selectivity ratio at 30 min in [1] was > 31; in series [3] it was > 250; in [5] it was > 125; in series [6], > 125. Also, in series [2], the hemolysis at 0.5 h was found to be 10%. For the same compound, the metabolised at 4.5 h on Trypsin [4] stood at 58%. Besides, the HC50 at 0.5 h in [7] is > 1000 µg/mL.
For H-KWKLFKKIGAVLKVL-NH2, the MIC is 32 mg/L in the series with Bacillus subtilis, 8 mg/L with Pseudomonas aeruginosa, 4 mg/L in the series with Staphylococcus aureus and 4 mg/L in the series with Escherichia coli. Moreover, the Stability entry at Trypsin [8] is listed as “Unstable”. Further, the selectivity ratio at 30 min was found to be 22 in series [1], 173 in series [3], 86 in series [5] and 173 in series [6]. Further, the hemolysis at 0.5 h in series [2] stood at 10%. In addition, the 50% haemolytic concentration (HC50) at 0.5 h in [7] amounted to 690 µg/mL.
